Results published in patent US7354711B2, “Methods for inhibiting immunostimulatory DNA associated responses” (University of Iowa Research Foundation, priority 1997, dated 2008).

Tested on: WEHI 231 cells
Assay: Inhibition of CpG-ODN 1760 protection against α-sIgM-induced inhibition of [3H] thymidine uptake
Type: cell-based, mouse
Conditions: for Fold: activity expressed as a fraction of activity of chloroquine / Activity: -log10 of the concentration (M) required for half maximal inhibition of CpG-ODN effect on [3H] thymidine uptake in the presence of α-sIgM: Table 2, 4-aminoquinolines; for Activity: -log10 of the concentration (M) required for half maximal inhibition of CpG-ODN effect on [3H] thymidine uptake in the presence of α-sIgM / Activity,-log10 (concentration (M) for half maximal inhibition of CpG-ODN effect on [3H] thymidine uptake in the presence of α-sIgM): WEHI 231 cells; for Effect on CpG-ODN action (FIG. 1): at concentrations less than 10 μM; for vs. Chloroquine, fold / Activity,-log10 (concentration (M) for half maximal inhibition of CpG-ODN effect on [3H] thymidine uptake in the presence of α-sIgM): Table 3, 9-aminoacridines
Method: The assay of [^3H] Thymidine incorporation was carried out as follows. WEHI 231 cells (200 μL at 2×10^5/milliliter, in duplicate or triplicate) were incubated in a 96-well plate (Costar, Cambridge Mass.). Additions were made as indicated. After incubating for 16 hours, 0.5 μCi [methyl-^3H] thymidine (2 Ci/millimole, DuPont NEN, Boston Mass.) was added to each well, and the cells were incubated for another 4 hours. Cellular DNA was then captured onto glass fiber filters (Whatman 934AH) using a cell harvester (Brandel, Gaithersberg Md.). The filters were dried, placed into plastic scintillation vials with 10 milliliters of scintillation cocktail (EconoSafe, Research Products International, Mount Prospect Ill.), and counted in a liquid scintillation counter (Beckman LS-3133 T). The ^3H recovered on the filter was expressed as a fraction of the ^3H added.
Referring to experiments summarized in FIG. 1, WEHI 231 cells (ca. 2×10^5 per milliliter) were incubated for 16 hours at 37° C. with 10 μgrams/milliliter α-sIgM, 6 μgrams/milliliter ODN 1760, and the indicated concentration of the compound. After 16 hours, 0.5 μCi [^3H] thymidine was added. After 4 more hours incubation, the cellular DNA was harvested onto glass fiber filters. The dry filters were counted in a liquid scintillation counter.
Each experimental point was the mean of at least duplicate measurements.
Referring to the experiments summarized in FIG. 3, 10 μgrams/milliliter α-sIgM and the indicated concentrations of ODN 1760 and quinacrine were added simultaneously to WEHI 231 cells. Thymidine incorporation was estimated at 16 hours as described for Example 1.
Referring to the experiments summarized in FIG. 4, WEHI 231 cells were incubated with α-sIgM and ODN 1760. At times thereafter 0.1 μM quinacrine was added (data shown in the left three bars). Cells were incubated with 10 μgrams/milliliter (α-sIgM and ODN 1760 (6 μgrams/milliliter, phosphorothioate or a phosphodiester ODN with the same sequence as 1760 (PD ODN) (30 μM at time 0 hours and 8 hours; data represented in right six bars in FIG. 4). [^3H] thymidine incorporation was estimated at 16 hours.
The symbol — indicates no change. Me and Et indicate —CH3 and —CH2CH3 respectively. Aromatic substituents are in the para position except as indicated. The activity is —log10 of the concentration (M) required for half maximal inhibition of CpG-ODN effect on [^3H] thymidine uptake in the presence of α-sIgM.

CCN(CC)CCCC(C)Nc1ccnc2cc(C)ccc12 (centres unmarked) [compound 37]
Fold: activity expressed as a fraction of activity of chloroquine: 0.03 fold
Activity: -log10 of the concentration (M) required for half maximal inhibition of CpG-ODN effect on [3H] thymidine uptake in the presence of α-sIgM: 5.50

C=C[C@H]1C[N@@]2CC[C@H]1C[C@H]2[C@H](O)c1ccnc2ccc(OC)cc12 [quinine, reference compound]
Effect on CpG-ODN action (FIG. 1): little effect

CCN(CC)CCCC(C)Nc1ccnc2cc(Oc3ccccc3)ccc12 (centres unmarked) [compound 50]
Fold: activity expressed as a fraction of activity of chloroquine: 0.74 fold
Activity: -log10 of the concentration (M) required for half maximal inhibition of CpG-ODN effect on [3H] thymidine uptake in the presence of α-sIgM: 6.83

CCN(CC)CCCC(CNc1ccnc2cc(Cl)ccc12)c1ccc(Cl)cc1 (centres unmarked) [compound 33]
Fold: activity expressed as a fraction of activity of chloroquine: 2.95 fold
Activity: -log10 of the concentration (M) required for half maximal inhibition of CpG-ODN effect on [3H] thymidine uptake in the presence of α-sIgM: 7.43

CCN(CC)CCCC(Nc1c2ccc(Cl)cc2nc2ccc(OC)cc12)c1cccnc1 (centres unmarked) [compound 24]
vs. Chloroquine, fold: 3.63 fold
Activity,-log10 (concentration (M) for half maximal inhibition of CpG-ODN effect on [3H] thymidine uptake in the presence of α-sIgM): 7.52

CCN(CC)CCCC(Nc1c2ccc(Cl)cc2nc2ccc(OC)cc12)c1ccc(Cl)cc1 (centres unmarked) [compound 28]
vs. Chloroquine, fold: 1.82 fold
Activity,-log10 (concentration (M) for half maximal inhibition of CpG-ODN effect on [3H] thymidine uptake in the presence of α-sIgM): 7.22

CCN(CC)CCCCNc1c(C)cnc2cc(Cl)ccc12 [compound 35]
Fold: activity expressed as a fraction of activity of chloroquine: 0.81 fold
Activity: -log10 of the concentration (M) required for half maximal inhibition of CpG-ODN effect on [3H] thymidine uptake in the presence of α-sIgM: 6.87

CCN(CC)CCCC(C)Nc1c(-c2ccccc2)cnc2cc(Cl)ccc12 (centres unmarked) [compound 12]
Fold: activity expressed as a fraction of activity of chloroquine: 0.69 fold
Activity: -log10 of the concentration (M) required for half maximal inhibition of CpG-ODN effect on [3H] thymidine uptake in the presence of α-sIgM: 6.80

CCN(CC)CCCC(C)Nc1c(C)cnc2cc(Cl)c(C)cc12 (centres unmarked) [compound 32]
Fold: activity expressed as a fraction of activity of chloroquine: 2.57 fold
Activity: -log10 of the concentration (M) required for half maximal inhibition of CpG-ODN effect on [3H] thymidine uptake in the presence of α-sIgM: 7.37

CCN(CC)CCCC(C)Nc1ccnc2cccc(Cl)c12 (centres unmarked) [compound 9]
Fold: activity expressed as a fraction of activity of chloroquine: 0.76 fold
Activity: -log10 of the concentration (M) required for half maximal inhibition of CpG-ODN effect on [3H] thymidine uptake in the presence of α-sIgM: 6.84

CCN(CC)CCC(CNc1ccnc2cc(Cl)ccc12)c1ccccc1 (centres unmarked) [compound 7]
Fold: activity expressed as a fraction of activity of chloroquine: 1.38 fold
Activity: -log10 of the concentration (M) required for half maximal inhibition of CpG-ODN effect on [3H] thymidine uptake in the presence of α-sIgM: 7.10

CCOc1cc2c(NC(C)CCCN(CC)CC)c(C)cnc2cc1Cl (centres unmarked) [compound 71]
Fold: activity expressed as a fraction of activity of chloroquine: 0.09 fold
Activity: -log10 of the concentration (M) required for half maximal inhibition of CpG-ODN effect on [3H] thymidine uptake in the presence of α-sIgM: 5.90

CCN(CC)CCCC(C)Nc1c(C)cnc2cc(OC)ccc12 (centres unmarked) [compound 41]
Fold: activity expressed as a fraction of activity of chloroquine: 0.28 fold
Activity: -log10 of the concentration (M) required for half maximal inhibition of CpG-ODN effect on [3H] thymidine uptake in the presence of α-sIgM: 6.64

CCN(CCO)CCCC(C)Nc1ccnc2cc(Cl)ccc12 (centres unmarked) [hydroxychloroquine, reference compound]
Inhibition of the CpG-ODN effect (FIG. 1) (at nanomolar concentrations, 10 μg/mL α-sIgM, 6 μg/mL ODN 1760): completely inhibited

COc1cc(NC(C)CCCN)c2ncccc2c1 (centres unmarked) [primaquine, reference compound]
Effect on CpG-ODN action (FIG. 1): little effect

CCN(CC)CCCC(C)Nc1cc(-c2ccccc2)nc2cc(OC)ccc12 (centres unmarked) [compound 44]
Fold: activity expressed as a fraction of activity of chloroquine: 3.63 fold
Activity: -log10 of the concentration (M) required for half maximal inhibition of CpG-ODN effect on [3H] thymidine uptake in the presence of α-sIgM: 7.52

CCN(CC)CCCC(Nc1c2ccc(Cl)cc2nc2ccc(OC)cc12)c1cccc2ccccc12 (centres unmarked) [compound 29]
vs. Chloroquine, fold: 1.91 fold
Activity,-log10 (concentration (M) for half maximal inhibition of CpG-ODN effect on [3H] thymidine uptake in the presence of α-sIgM): 7.24

CCN(CC)CC=CC(C)Nc1ccnc2cc(Cl)ccc12 (centres unmarked) [compound 53]
Fold: activity expressed as a fraction of activity of chloroquine: 0.81 fold
Activity: -log10 of the concentration (M) required for half maximal inhibition of CpG-ODN effect on [3H] thymidine uptake in the presence of α-sIgM: 6.87

CN(C)CCCCNc1ccnc2cc(Cl)ccc12 [compound 10]
Fold: activity expressed as a fraction of activity of chloroquine: 0.72 fold
Activity: -log10 of the concentration (M) required for half maximal inhibition of CpG-ODN effect on [3H] thymidine uptake in the presence of α-sIgM: 6.82

COc1ccc2nc3cc(Cl)ccc3c(NCCCNCCCCNCCCNc3c4ccc(Cl)cc4nc4ccc(OC)cc34)c2c1 [compound 58, bis-(6-chloro-2-methoxy-9-acridinyl)spermine]
vs. Chloroquine, fold: 0.26 fold
Activity,-log10 (concentration (M) for half maximal inhibition of CpG-ODN effect on [3H] thymidine uptake in the presence of α-sIgM): 6.38

CCN(CC)CCCC(Nc1c2ccc(Cl)cc2nc2ccc(OC)cc12)c1ccc(F)cc1 (centres unmarked) [compound 23]
vs. Chloroquine, fold: 2.57 fold
Activity,-log10 (concentration (M) for half maximal inhibition of CpG-ODN effect on [3H] thymidine uptake in the presence of α-sIgM): 7.37

CCN(CC)CCCC(C)Nc1ccnc2cc(C)ccc12 (centres unmarked) [compound 3]
Fold: activity expressed as a fraction of activity of chloroquine: 0.16 fold
Activity: -log10 of the concentration (M) required for half maximal inhibition of CpG-ODN effect on [3H] thymidine uptake in the presence of α-sIgM: 6.16

CCN(CC)CCCC(C)Nc1c(C)cnc2cc(Cl)ccc12 (centres unmarked) [compound 1]
Fold: activity expressed as a fraction of activity of chloroquine: 0.55 fold
Activity: -log10 of the concentration (M) required for half maximal inhibition of CpG-ODN effect on [3H] thymidine uptake in the presence of α-sIgM: 6.70

CCN(CC)CCCC(CCl)Nc1ccnc2cc(Cl)ccc12 (centres unmarked) [compound 56]
Fold: activity expressed as a fraction of activity of chloroquine: 1.45 fold
Activity: -log10 of the concentration (M) required for half maximal inhibition of CpG-ODN effect on [3H] thymidine uptake in the presence of α-sIgM: 7.12

CCN(CC)CCCC(C)Nc1c2ccc(Cl)cc2nc2cc(OC)c(OC)cc12 (centres unmarked) [compound 26]
vs. Chloroquine, fold: 10.72 fold
Activity,-log10 (concentration (M) for half maximal inhibition of CpG-ODN effect on [3H] thymidine uptake in the presence of α-sIgM): 7.99

CCN(CC)CCCC(C)Nc1c(C)cnc2cccc(Br)c12 (centres unmarked) [compound 62]
Fold: activity expressed as a fraction of activity of chloroquine: 0.35 fold
Activity: -log10 of the concentration (M) required for half maximal inhibition of CpG-ODN effect on [3H] thymidine uptake in the presence of α-sIgM: 6.51

CCN(CC)CCC(CNc1ccnc2cc(Cl)ccc12)c1ccc(OC)cc1 (centres unmarked) [compound 61]
Fold: activity expressed as a fraction of activity of chloroquine: 0.79 fold
Activity: -log10 of the concentration (M) required for half maximal inhibition of CpG-ODN effect on [3H] thymidine uptake in the presence of α-sIgM: 6.86

CCN(CC)CCCC(Nc1c2ccc(Cl)cc2nc2ccc(OC)cc12)c1ccccc1 (centres unmarked) [compound 25]
vs. Chloroquine, fold: 5.75 fold
Activity,-log10 (concentration (M) for half maximal inhibition of CpG-ODN effect on [3H] thymidine uptake in the presence of α-sIgM): 7.72

CN(C)C(C)(C)CCCNc1ccnc2cc(Cl)ccc12 [compound 68]
Fold: activity expressed as a fraction of activity of chloroquine: 0.81 fold
Activity: -log10 of the concentration (M) required for half maximal inhibition of CpG-ODN effect on [3H] thymidine uptake in the presence of α-sIgM: 6.87

CCN(CC)CCCC(C)Nc1c(C)cnc2c(OC)c(Cl)ccc12 (centres unmarked) [compound 63]
Fold: activity expressed as a fraction of activity of chloroquine: 0.10 fold
Activity: -log10 of the concentration (M) required for half maximal inhibition of CpG-ODN effect on [3H] thymidine uptake in the presence of α-sIgM: 5.95

OC1CCCC1Nc1ccnc2cc(Cl)ccc12 (centres unmarked) [compound 47]
Fold: activity expressed as a fraction of activity of chloroquine: 0.02 fold
Activity: -log10 of the concentration (M) required for half maximal inhibition of CpG-ODN effect on [3H] thymidine uptake in the presence of α-sIgM: 5.25

CCN(CC)CCCC(C)Nc1cc(-c2ccccc2)nc2cc(Cl)ccc12 (centres unmarked) [compound 48]
Fold: activity expressed as a fraction of activity of chloroquine: 2.14 fold
Activity: -log10 of the concentration (M) required for half maximal inhibition of CpG-ODN effect on [3H] thymidine uptake in the presence of α-sIgM: 7.29

CCN(CC)CCCC(C)Nc1ccnc2cc(Br)ccc12 (centres unmarked) [compound 4]
Fold: activity expressed as a fraction of activity of chloroquine: 0.72 fold
Activity: -log10 of the concentration (M) required for half maximal inhibition of CpG-ODN effect on [3H] thymidine uptake in the presence of α-sIgM: 6.82

COc1ccc2nc3cc(Cl)ccc3c(N)c2c1 [compound 59, 9-amino-6-chloro-2-methoxyacridine]
vs. Chloroquine, fold: 1.00 fold
Activity,-log10 (concentration (M) for half maximal inhibition of CpG-ODN effect on [3H] thymidine uptake in the presence of α-sIgM): 6.96
